For eleven compounds, IC50 results are on record in patent US20240409585A1, “MACROCYCLIC IMMUNOMODULATORS” (priority 2021, published 2024).

Broadly, the IC50 is the midpoint of a concentration-inhibition curve.

Bridge positions count the residues as written; N and C are the ends. Square brackets hold non-standard residues; d marks the D form. Peptide text beside a SMILES is read from it. * marks the point of attachment. ξ: configuration not given here. Tyr(3,5-Br2) = N[C@@H](Cc1cc(Br)c(O)c(Br)c1)C(=O)O; Phe(4-COOH) = N[C@@H](Cc1ccc(C(=O)O)cc1)C(=O)O; Bip = N[C@@H](Cc1ccc(-c2ccccc2)cc1)C(=O)O; Phe(3-Me) = Cc1cccc(C[C@H](N)C(=O)O)c1; Val(3-OH) = CC(C)(O)[C@H](N)C(=O)O; 3Pal = N[C@@H](Cc1cccnc1)C(=O)O; 4Pal = N[C@@H](Cc1ccncc1)C(=O)O; d4Pal = N[C@H](Cc1ccncc1)C(=O)O; Cha = N[C@@H](CC1CCCCC1)C(=O)O; Cit = NC(=O)NCCC[C@H](N)C(=O)O; Ile(3ξ) = CCC(C)[C@H](N)C(=O)O; NMeL = CN[C@@H](CC(C)C)C(=O)O; Thr(3ξ) = CC(O)[C@H](N)C(=O)O; Carboxymethyl = O=C(O)C*; NMeA = CN[C@@H](C)C(=O)O; Orn = NCCC[C@H](N)C(=O)O; Dab = NCC[C@H](N)C(=O)O

In this assay the target is T1, PE-labeled human PD-L1-Ig binding to Jurkat cell line over-expressing human PD-1 (Jurkat-PD-1) (Homo sapiens, UniProt Q15116).
T1 construct: expressed in transfected cells; host or cells: Jurkat
T1 sequence (Q15116 25-288): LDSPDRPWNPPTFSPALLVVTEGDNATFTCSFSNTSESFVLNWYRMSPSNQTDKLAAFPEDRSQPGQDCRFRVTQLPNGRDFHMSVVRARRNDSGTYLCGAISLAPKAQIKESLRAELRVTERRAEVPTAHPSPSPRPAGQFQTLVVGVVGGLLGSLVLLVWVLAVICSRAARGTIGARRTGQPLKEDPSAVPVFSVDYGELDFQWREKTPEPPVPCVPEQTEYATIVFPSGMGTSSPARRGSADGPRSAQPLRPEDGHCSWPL
In words: Jurkat-PD-1 Cell Binding High-Content Screening Assay (CBA): Method 1. The conditions noted are these: Jurkat-hPD-1 cells, PE-labeled PD-L1-Ig 20 nM final; read-out: Jurkat HPDL1 PD1 IC50 (uM) (Method 1).
Turning to `CC(C)C[C@@H]1NC(=O)[C@H](Cc2c[nH]c3ccccc23)NC(=O)[C@H](CC(=O)O)NC(=O)[C@H](Cc2ccc(O)cc2)NC(=O)[C@H](Cc2ccncc2)NC(=O)CSC[C@@H](C(=O)N[C@@H](C)C(N)=O)NC(=O)[C@H](CO)NC(=O)[C@H](C(C)C)NC(=O)[C@H](CC(C)C)NC(=O)[C@H](CC(N)=O)NC(=O)[C@@H](C)NC(=O)[C@H](C)N(C)C(=O)[C@H](C(C)C)NC(=O)[C@H](Cc2ccc(-c3ccccc3)cc2)NC1=O` [Compound 1730] ({CH2CO}-[4Pal]YDWL[Bip]V[NMeA][dA]NLVSCA-NH2; thioether N-14), the IC50 worked out at 0.01 µM.
As for `CCC(C)[C@@H]1NC(=O)[C@H](Cc2ccc(-c3ccccc3)cc2)NC(=O)[C@H](CC(C)C)NC(=O)[C@H](Cc2c[nH]c3ccccc23)NC(=O)[C@H](CC(=O)O)NC(=O)[C@H](Cc2ccc(OCC(=O)O)cc2)NC(=O)[C@H](C(C)O)NC(=O)CSC[C@@H](C(=O)N[C@@H](CC(N)=O)C(=O)O)NC(=O)[C@H](CC(=O)O)NC(=O)[C@H](C(C)C)NC(=O)[C@H](CC(C)C)NC(=O)[C@H](CCN)NC(=O)[C@@H](CC(C)C)NC(=O)[C@H](C)N(C)C1=O` (stereo partly drawn) [Compound 2225] ({CH2CO}-[Thr(3ξ)]Y(Carboxymethyl)DWL[Bip][Ile(3ξ)][NMeA][dL][Dab]LVDCN-OH; thioether N-14), the IC50 came out at 0.08 µM.
With `CC(C)C[C@@H]1NC(=O)[C@H](CCCNC(=N)N)NC(=O)[C@@H](CC(C)C)NC(=O)[C@H](C)N(C)C(=O)[C@H](CCCNC(=N)N)NC(=O)[C@H](Cc2ccc(-c3ccccc3)cc2)NC(=O)[C@H](C(C)C)NC(=O)[C@H](Cc2c[nH]c3ccccc23)NC(=O)[C@H](CC(=O)O)NC(=O)[C@H](Cc2cc(Br)c(O)c(Br)c2)NC(=O)[C@H](Cc2ccccc2)NC(=O)CSC[C@@H](C(=O)N[C@@H](C)C(N)=O)NC(=O)[C@H]([C@@H](C)O)NC(=O)[C@H](C(C)C)NC1=O` [Compound 1092] ({CH2CO}-F[Tyr(3,5-Br2)]DWV[Bip]R[NMeA][dL]RLVTCA-NH2; thioether N-14) the figure was 0.42 µM.
Turning to `CC(C)C[C@@H]1NC(=O)[C@H](CCCNC(=N)N)NC(=O)[C@@H](CC(C)C)NC(=O)[C@H](C)N(C)C(=O)[C@H](CCCNC(=N)N)NC(=O)[C@H](Cc2ccc(-c3ccccc3)cc2)NC(=O)[C@H](C(C)C)NC(=O)[C@H](Cc2c[nH]c3ccccc23)NC(=O)[C@H](CC(=O)O)NC(=O)[C@H](Cc2ccc(O)cc2)NC(=O)[C@H](Cc2cccnc2)NC(=O)CSC[C@@H](C(=O)N[C@@H](C)C(N)=O)NC(=O)[C@H](CO)NC(=O)[C@H](C(C)C)NC1=O` [Compound 1036] ({CH2CO}-[3Pal]YDWV[Bip]R[NMeA][dL]RLVSCA-NH2; thioether N-14), the IC50 came to 0.05 µM.
The value for `CC(C)C[C@@H]1NC(=O)[C@H](CCCNC(=N)N)NC(=O)[C@@H](Cc2ccncc2)NC(=O)[C@H](C)N(C)C(=O)[C@H](CCCNC(=N)N)NC(=O)[C@H](Cc2ccc(-c3ccccc3)cc2)NC(=O)[C@H](C(C)C)NC(=O)[C@H](Cc2c[nH]c3ccccc23)NC(=O)[C@H](CC(=O)O)NC(=O)[C@H](Cc2ccc(O)cc2)NC(=O)[C@H](Cc2ccccc2)NC(=O)CSC[C@@H](C(=O)N[C@@H](C)C(N)=O)NC(=O)[C@H]([C@@H](C)O)NC(=O)[C@H](C(C)C)NC1=O` [Compound 1072] ({CH2CO}-FYDWV[Bip]R[NMeA][d4Pal]RLVTCA-NH2; thioether N-14) was 0.18 µM; that for `CCC(C)[C@@H]1NC(=O)[C@H](Cc2ccc(-c3ccccc3)cc2)NC(=O)[C@H](CC(C)C)NC(=O)[C@H](Cc2c[nH]c3ccccc23)NC(=O)[C@H](CC(=O)O)NC(=O)[C@H](Cc2ccc(C(=O)O)cc2)NC(=O)[C@H](Cc2ccc(OCC(=O)O)cc2)NC(=O)CSC[C@@H](C(=O)N[C@@H](CC(N)=O)C(N)=O)NC(=O)[C@H](CO)NC(=O)[C@H](C(C)(C)O)NC(=O)[C@H](CC2CCCCC2)NC(=O)[C@H](CCN)NC(=O)[C@@H](CC(C)C)NC(=O)[C@H](C)N(C)C1=O` (stereo partly drawn) [Compound 1916] ({CH2CO}-Y(Carboxymethyl)[Phe(4-COOH)]DWL[Bip][Ile(3ξ)][NMeA][dL][Dab][Cha][Val(3-OH)]SCN-NH2; thioether N-14) was 0.02 µM.
On to `Cc1cccc(C[C@@H]2NC(=O)[C@H](CC(=O)O)NC(=O)[C@H](Cc3ccc(OCC(=O)O)cc3)NC(=O)[C@H](Cc3ccc(OCC(=O)O)cc3)NC(=O)CSC[C@@H](C(=O)N[C@@H](C)C(N)=O)NC(=O)[C@H](CO)NC(=O)[C@H](C(C)C)NC(=O)[C@H](CC(C)C)NC(=O)[C@H](CC(N)=O)NC(=O)[C@@H](C)NC(=O)[C@H](C)N(C)C(=O)[C@H](C(C)C)NC(=O)[C@H](Cc3ccc(-c4ccccc4)cc3)NC(=O)[C@H](CC(C)C)NC2=O)c1` [Compound 1580] ({CH2CO}-Y(Carboxymethyl)Y(Carboxymethyl)D[Phe(3-Me)]L[Bip]V[NMeA][dA]NLVSCA-NH2; thioether N-14), for which the IC50 came to 0.01 µM.
With `CC(C)C[C@H]1NC(=O)[C@H](C)N(C)C(=O)[C@H](CCCNC(=N)N)NC(=O)[C@H](Cc2ccc(-c3ccccc3)cc2)NC(=O)[C@H](C(C)C)NC(=O)[C@H](Cc2c[nH]c3ccccc23)NC(=O)[C@H](CC(=O)O)NC(=O)[C@H](Cc2ccc(O)cc2)NC(=O)[C@H](Cc2ccccc2)NC(=O)CSC[C@@H](C(=O)N[C@@H](C)C(N)=O)NC(=O)[C@H]([C@@H](C)O)NC(=O)[C@H](C(C)C)NC(=O)[C@H](CC(C)C)N(C)C(=O)[C@H](CCCNC(=N)N)NC1=O` [Compound 1117] ({CH2CO}-FYDWV[Bip]R[NMeA][dL]R[NMeL]VTCA-NH2; thioether N-14), the IC50 is 0.36 µM.
With `Cc1cccc(C[C@@H]2NC(=O)[C@H](CC(=O)O)NC(=O)[C@H](Cc3ccc(O)cc3)NC(=O)[C@H](CC(N)=O)NC(=O)CSC[C@@H](C(N)=O)NC(=O)[C@H]([C@@H](C)O)NC(=O)[C@H](C(C)C)NC(=O)[C@H](CC(C)C)NC(=O)[C@H](CCN)NC(=O)[C@@H](CC(C)C)NC(=O)[C@H](C)N(C)C(=O)[C@H](C(C)C)NC(=O)[C@H](Cc3ccc(-c4ccccc4)cc3)NC(=O)[C@H](C(C)C)NC2=O)c1` [Compound 1637] ({CH2CO}-NYD[Phe(3-Me)]V[Bip]V[NMeA][dL][Dab]LVTC-NH2; thioether N-14) the figure was 0.15 µM; with `CC(C)C[C@@H]1NC(=O)[C@H](CC(N)=O)NC(=O)[C@@H](CC(C)C)NC(=O)[C@H](C)N(C)C(=O)[C@H](CCCNC(N)=O)NC(=O)[C@H](Cc2ccc(-c3ccccc3)cc2)NC(=O)[C@H](C(C)C)NC(=O)[C@H](Cc2c[nH]c3ccccc23)NC(=O)[C@H](CC(=O)O)NC(=O)[C@H](Cc2ccc(O)cc2)NC(=O)[C@H](Cc2ccccc2)NC(=O)CSC[C@@H](C(=O)N[C@@H](C)C(N)=O)NC(=O)[C@H](C(C)O)NC(=O)[C@H](C(C)C)NC1=O` (stereo partly drawn) [Compound 2031] ({CH2CO}-FYDWV[Bip][Cit][NMeA][dL]NLV[Thr(3ξ)]CA-NH2; thioether N-14), 0.07 µM.
The value for `CC(C)C[C@@H]1NC(=O)[C@H](CCCN)NC(=O)[C@@H](CC(C)C)NC(=O)[C@H](C)N(C)C(=O)[C@H](CCC(=O)O)NC(=O)[C@H](Cc2ccc(-c3ccccc3)cc2)NC(=O)[C@H](C(C)C)NC(=O)[C@H](Cc2c[nH]c3ccccc23)NC(=O)[C@H](CC(=O)O)NC(=O)[C@H](Cc2ccc(O)cc2)NC(=O)[C@H](CC(N)=O)NC(=O)CSC[C@@H](C(=O)N[C@@H](C)C(N)=O)NC(=O)[C@H](CO)NC(=O)[C@H](C(C)C)NC1=O` [Compound 1240] ({CH2CO}-NYDWV[Bip]E[NMeA][dL][Orn]LVSCA-NH2; thioether N-14) was 0.04 µM.
